Literature values, collected in patent US8257918B2, “Intelligent nanomedicine integrating diagnosis and therapy” (The Regents of the University of California, priority 2004, dated 2012).

What was measured:
tumor = conditions: comparison with doxorubicin

COc1cccc2c1C(=O)c1c(O)c3c(c(O)c1C2=O)C[C@@](O)(C(=O)CO)C[C@@H]3O[C@H]1C[C@H](NC(=O)[C@@H](N)CC(C)C)[C@H](O)[C@H](C)O1 [Leu-Dox, N-1-leucyl-doxorubucin]
anti-tumor efficiency relative to doxorubicin (tumor): more efficient anti-tumor agents than doxorubicin

COc1cccc2c1C(=O)c1c(O)c3c(c(O)c1C2=O)C[C@@](O)(C(=O)CO)C[C@@H]3O[C@H]1C[C@H](N)[C@H](O)[C@H](C)O1 [doxorubicin]
cumulative doses that engender a substantial risk of cardiotoxicity: exceed 550 mg/m^2
